From patent US7256174B2, “Somatostatin and somatostatin agonists for treating insulin insensitivity and Syndrome X” (Societe de Conseils de Recherches et d'Applications …, priority 1997, dated 2007) come the findings set out here.

The nature of data set [1]: Insulin sensitivity study, oral glucose challenge after chronic treatment. It counts as in vivo, fatty (fa/fa) Zucker rats. Conditions: 3 mg/kg s.c. twice daily, 7 days. On the procedure: Male fatty Zucker rats (Harlan-Olac, Bicester, Oxon, U.K.), which were 15-17 weeks old, were randomly divided into two groups. The animals were house in pairs in a normal 12 hour light:12 hour darkness cycle at 20±2° C. and fed a standard laboratory rat diet (Beekay rat and mouse diet, Bantin & Kingman, Hull, Humberside, U.K.) ad libitum. For the group assigned to receive drug treatment, the rats received BIM-23268C at 3 mg/kg, by subcutaneous injection, twice a day at 10:00 AM and 5:00 PM. The other group, the control group, was treated with a subcutaneous injection of 0.1 ml/100 g of saline twice a day at 10:00 AM and 5:00 PM. […] On the last day of treatment, at 5:00 PM food was removed, and the rats were fasted overnight.
A method for assessing insulin sensitivity is to administer an oral glucose challenge and monitoring the secretion of insulin and disposal of glucose from the blood stream over a 240 min period (Bergman, R. N., et al., Endocrine Review 6:45-86 (1985)). […] 20 μl blood samples were taken from tail vein (Abdel-Halim, S. M., et al., Diabetes 43:281-288 (1994)) at −60 min, −30 min, 0 min, 30 min, 60 min, 90 min, 120 min, and 240 min.
The 20 μl samples were taken into 380 μl of hemolysis reagents (Sigma, Poole, Dorset, UK) containing 50 mg/liter of digitonin (Cat# D-1407) and 100 mg/liter of Maleimide (M-3766). From this, 100 μl of the hemolysed blood sample was added to 0.9 ml of Tinder reagent (Sigma Enzymatic calorimetric assay for blood glucose, Cat# 315-100, Sigma Chemical Co. Ltd, Poole, Dorset, UK). Blood glucose was determined according to vendor's recommendation at 505 nm.
Insulin was measured by the conventional radioimmunoassay method as described (Dunmore, S., & Beloff-Chain, A., J Endocrinol. 92:15-21 (1982)). Samples were assayed in triplicates with a 1:30000 dilution of an insulin antiserum (from guinea pig)raised in the laboratory (Dunmore, S. J., et al., J. Endocrinol. 137:375-381 (1993), and using ^125I-labelled bovine insulin, iodinated by the chloramine T method (Sambrook, et al., Molecular Cloning—A Laboratory Manual, Ed. 2., Cold Spring Harbor Laboratory Press, 1989). Rat insulin (2000U/0.1 ml, Novo Nordisk Laboratories, Basingstoke, Hants, U.K.) was used as a standard in the assay. The standards and samples were diluted in assay buffer containing NaH2PO4 5.7 g/L, bovine serum albumin (Sigma A4378, Sigma Chemical Co. Ltd., Poole, Dorset, UK) 5.0 g/L, NaN3 1.0 g/L buffered to pH 7.4). Antibody-bound insulin was separated on from free insulin by the addition of a second antibody (donkey anti-guinea pig Ig) coated on cellulose, Sac-Cel (IDS, Boldon, Tyne & Wear, UK). The antibody-bound insulin precipitate was separated by centrifugation. Counts bound were measured on an LKB Rackgamma solid scintillation counter.

Data set [2] in a line: Lipidemia study, plasma glycerol and triglycerides. It counts as in vivo, Obese (fa/fa) Zucker rats. On the procedure: Obese (fa/fa) Zucker rats were treated as in example 1 above. On the last day of treatment (day 6), food was removed at 5:00 p.m., and the rats were fasted overnight. At 9:00 a.m. the next day, the animals were subjected to a glucose challenge, given as 0.8 gram/kg of glucose orally. Periodic 400 μl of blood samples were taken from the tail vein (Peterson, R. G., ILAR News, 32:16-19 (1990)) 60 min. and 30 min. before and at 30, 60, 90, and 120 min. after the administration of the glucose challenge (0.8 gram/kg orally). Aprotinin (Traysylol, Bayer UK, Hayward's Health, W. Sussex, U.K.) and heparin (Sigma Chemical Co., Poole, Dorset, U.K.) were added to the blood samples to a final concentration of 400 KIU/ml and 100 units/ml, respectively. Plasma fractions were prepared from these samples by centrifugation at 4000×G in a microfuge, for the estimation of triglycerides and glycerol. Samples were then stored at −80° C. until assayed.
Plasma glycerol and triglycerides were determined using the Sigma Enzymatic (Tinder) calorimetric assay kit (Cat #337-B, Sigma Chemical Co., Poole, Dorset, U.K.) and measuring absorbance at 540 nm in a spectrophotometer.

A short description of data set [3]: Weight loss study, chronic (6 day) treatment. The settings on record: 3 mg/kg s.c. twice a day.
Where [4] appears, read: 0.8 g/kg oral glucose challenge.
Where [5] appears, read: 3 mg/kg s.c. twice a day, six days, samples 30 and 60 minutes before oral glucose challenge.
Where [6] appears, read: throughout the 2-hour test period after oral glucose challenge.

Molecules are shown by their SMILES. Bridge positions count the residues as written; N and C are the ends. Square brackets hold non-standard residues; d marks the D form. Peptide text beside a SMILES is read from it.

With `C[C@@H](O)[C@@H]1NC(=O)[C@H](CCCCN)NC(=O)[C@@H](Cc2c[nH]c3ccccc23)NC(=O)[C@H](Cc2ccccc2)NC(=O)[C@H](Cc2ccccc2)NC(=O)[C@@H](N)CSSC[C@@H](C(N)=O)NC(=O)[C@H](Cc2ccccc2)NC1=O` [BIM-23268, H-Cys-Phe-Phe-D-Trp-Lys-Thr-Phe-Cys-NH2] (H-CFF[dW]KTFC-NH2; disulfide 1-8), in data set [1], the hyperinsulinemia entry is reported as “suppressing” and the insulin-sensitivity result is “improvement”. Moreover, in data set [1] (setting [4]), the glucose tolerance entry is “did not show an impairment” and the “plasma glucose profile versus untreated group” value is “not significantly different”. Besides, in data set [1] (0.8 g/kg oral glucose challenge, vs saline control), the “glucose stimulated insulin secretion to the glucose challenge” value is given as “significant suppression”. Besides, in data set [2] (setting [5]), the plasma glycerol result is “significantly lowered” and the plasma triglycerides result is recorded as “significantly lowered”. The reducing hypertriglyceridemia entry in data set [2] (6-day treatment at 3 mg/kg s.c. twice a day) is “effective”. Also, in data set [2] (setting [6]), the plasma glycerol entry is reported as “significantly lower” and the plasma triglycerides entry is listed as “significantly lower”. Also, in data set [3] (six days), the “body weight gain versus control” value is “lower” and the “toxic effect / appearance of treated group” value is “appeared healthy”. The compound further showed an average food consumption in data set [3] (six days (control 26.0)) of 25.9 g/rat/day. In addition, the “difference in amount of food consumed over the entire treatment period” value in data set [3] (six days, vs control) was “no difference”. The “group mean weight after six days” value in data set [3] (after six days (control 414.09 to 418.89)) was found to be 413.6. For the same compound, the “group mean weight at the start of the trial” value in data set [3] (start of trial) is 413.6.
